Measured values taken from PubChem BioAssay (NCI).
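Compound exposure: 48 hours, 5 concentrations, 96-well plates. GI50 is the concentration that inhibits growth by half. The concentration for full growth arrest is given as TGI.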

How the values were obtained:
Test in all cases: inhibition of tumour cell growth, NCI panel, 48 h
DU-145 prostate = test system: DU-145 prostate
NCI-H226 lung = test system: NCI-H226 lung
KM12 colon = test system: KM12 colon
TK-10 renal = test system: TK-10 renal
SK-OV-3 ovarian = test system: SK-OV-3 ovarian
HCT-116 colon = test system: HCT-116 colon
HS 578T breast = test system: HS 578T breast
MALME-3M melanoma = test system: MALME-3M melanoma
HCC-2998 colon = test system: HCC-2998 colon
HCT-15 colon = test system: HCT-15 colon
M14 melanoma = test system: M14 melanoma
SR leukemia = test system: SR leukemia
UACC-62 melanoma = test system: UACC-62 melanoma
EKVX NSCLC = test system: EKVX NSCLC
CCRF-CEM leukemia = test system: CCRF-CEM leukemia
HT29 colon = test system: HT29 colon
NCI-H522 lung = test system: NCI-H522 lung
SF-539 CNS = test system: SF-539 CNS
OVCAR-8 ovarian = test system: OVCAR-8 ovarian
UO-31 renal = test system: UO-31 renal
OVCAR-5 ovarian = test system: OVCAR-5 ovarian
786-0 renal = test system: 786-0 renal
NCI/ADR-RES ovarian = test system: NCI/ADR-RES ovarian
SW-620 colon = test system: SW-620 colon
A498 renal = test system: A498 renal
SK-MEL-2 melanoma = test system: SK-MEL-2 melanoma
U251 CNS = test system: U251 CNS
BT-549 breast = test system: BT-549 breast
CAKI-1 renal = test system: CAKI-1 renal
SK-MEL-28 melanoma = test system: SK-MEL-28 melanoma
MCF7 breast = test system: MCF7 breast
RXF 393 renal = test system: RXF 393 renal
SF-268 CNS = test system: SF-268 CNS
PC-3 prostate = test system: PC-3 prostate
SNB-19 CNS = test system: SNB-19 CNS
NCI-H460 lung = test system: NCI-H460 lung
HL-60(TB) leukemia = test system: HL-60(TB) leukemia
ACHN renal = test system: ACHN renal
A549 NSCLC = test system: A549 NSCLC
COLO 205 colon = test system: COLO 205 colon
UACC-257 melanoma = test system: UACC-257 melanoma
RPMI-8226 leukemia = test system: RPMI-8226 leukemia
SK-MEL-5 melanoma = test system: SK-MEL-5 melanoma
LOX IMVI melanoma = test system: LOX IMVI melanoma
SN12C renal = test system: SN12C renal
SNB-75 CNS = test system: SNB-75 CNS
MDA-MB-435 = test system: MDA-MB-435
NCI-H23 lung = test system: NCI-H23 lung
OVCAR-3 ovarian = test system: OVCAR-3 ovarian
HOP-92 NSCLC = test system: HOP-92 NSCLC
T-47D breast = test system: T-47D breast
SF-295 CNS = test system: SF-295 CNS
OVCAR-4 ovarian = test system: OVCAR-4 ovarian
IGROV1 ovarian = test system: IGROV1 ovarian
HOP-62 NSCLC = test system: HOP-62 NSCLC
MDA-MB-231 breast = test system: MDA-MB-231 breast
K-562 leukemia = test system: K-562 leukemia
MOLT-4 leukemia = test system: MOLT-4 leukemia

Cn1ccnc1C(=O)/C=C/c1ccc(CC(=O)Nc2ccc(S(F)(F)(F)(F)F)cc2)cc1 was tested, and the GI50 (DU-145 prostate) was 2.25 µM, the TGI (DU-145 prostate) was 4.53 µM and the GI50 (NCI-H226 lung) was 2.93 µM. The TGI (NCI-H226 lung) was 7.02 µM, the GI50 (KM12 colon) was 2.04 µM and the TGI (KM12 colon) was 4.7 µM. The GI50 (TK-10 renal) was 4.05 µM, the TGI (TK-10 renal) was 9.5 µM and the GI50 (SK-OV-3 ovarian) was 3.86 µM. It also gave a TGI (SK-OV-3 ovarian) of 11.6 µM, a GI50 (HCT-116 colon) of 0.823 µM and a TGI (HCT-116 colon) of 2.87 µM. The GI50 (HS 578T breast) was 4.91 µM, the TGI (HS 578T breast) was 16.4 µM and the GI50 (MALME-3M melanoma) was 2.95 µM. The TGI (MALME-3M melanoma) was 6.65 µM, the GI50 (HCC-2998 colon) was 2.92 µM and the TGI (HCC-2998 colon) was 5.3 µM. For the same compound, the GI50 (HCT-15 colon) was 0.878 µM, the TGI (HCT-15 colon) was 11.7 µM and the GI50 (M14 melanoma) was 3.16 µM. The TGI (M14 melanoma) was 6.55 µM, the GI50 (SR leukemia) was 0.53 µM and the TGI (SR leukemia) was 1.86 µM. It also gave a GI50 (UACC-62 melanoma) of 2.89 µM, a TGI (UACC-62 melanoma) of 5.87 µM and a GI50 (EKVX NSCLC) of 2.84 µM. The TGI (EKVX NSCLC) was 8.23 µM, the GI50 (CCRF-CEM leukemia) was 0.538 µM and the TGI (CCRF-CEM leukemia) was 16.7 µM. The GI50 (HT29 colon) was 3.25 µM, the TGI (HT29 colon) was 7.2 µM and the GI50 (NCI-H522 lung) was 3.43 µM. The TGI (NCI-H522 lung) was 6.91 µM, the GI50 (SF-539 CNS) was 1.02 µM and the TGI (SF-539 CNS) was 3.26 µM. The GI50 (OVCAR-8 ovarian) was 4.94 µM, the TGI (OVCAR-8 ovarian) was 16.5 µM and the GI50 (UO-31 renal) was 2.22 µM. It also gave a TGI (UO-31 renal) of 4.35 µM, a GI50 (OVCAR-5 ovarian) of 2.12 µM and a TGI (OVCAR-5 ovarian) of 5.1 µM. For the same compound, the GI50 (786-0 renal) was 0.788 µM, the TGI (786-0 renal) was 3 µM and the GI50 (NCI/ADR-RES ovarian) was 3.53 µM. The TGI (NCI/ADR-RES ovarian) was 9.35 µM, the GI50 (SW-620 colon) was 1.03 µM and the TGI (SW-620 colon) was 4.09 µM. It also gave a GI50 (A498 renal) of 3.12 µM, a TGI (A498 renal) of 6.14 µM and a GI50 (SK-MEL-2 melanoma) of 3.59 µM. The TGI (SK-MEL-2 melanoma) was 10 µM, the GI50 (U251 CNS) was 0.898 µM and the TGI (U251 CNS) was 3.07 µM. It also gave a GI50 (BT-549 breast) of 2.5 µM, a TGI (BT-549 breast) of 5.29 µM and a GI50 (CAKI-1 renal) of 2.66 µM. For the same compound, the TGI (CAKI-1 renal) was 5.72 µM, the GI50 (SK-MEL-28 melanoma) was 2.83 µM and the TGI (SK-MEL-28 melanoma) was 5.88 µM. For the same compound, the GI50 (MCF7 breast) was 0.625 µM, the TGI (MCF7 breast) was 5.54 µM and the GI50 (RXF 393 renal) was 2.67 µM. It also gave a TGI (RXF 393 renal) of 5.21 µM, a GI50 (SF-268 CNS) of 1.88 µM and a TGI (SF-268 CNS) of 4.86 µM. The GI50 (PC-3 prostate) was 0.534 µM, the TGI (PC-3 prostate) was 2.03 µM and the GI50 (SNB-19 CNS) was 2.23 µM. For the same compound, the TGI (SNB-19 CNS) was 4.82 µM, the GI50 (NCI-H460 lung) was 2.25 µM and the TGI (NCI-H460 lung) was 7.58 µM. The GI50 (HL-60(TB) leukemia) was 0.62 µM, the TGI (HL-60(TB) leukemia) was 4.47 µM and the GI50 (ACHN renal) was 2.45 µM. For the same compound, the TGI (ACHN renal) was 4.82 µM, the GI50 (A549 NSCLC) was 3.32 µM and the TGI (A549 NSCLC) was 9.15 µM. It also gave a GI50 (COLO 205 colon) of 3.08 µM, a TGI (COLO 205 colon) of 6.66 µM and a GI50 (UACC-257 melanoma) of 4.35 µM. It also gave a TGI (UACC-257 melanoma) of 10.5 µM, a GI50 (RPMI-8226 leukemia) of 0.517 µM and a TGI (RPMI-8226 leukemia) of 2.03 µM. For the same compound, the GI50 (SK-MEL-5 melanoma) was 3.02 µM, the TGI (SK-MEL-5 melanoma) was 5.48 µM and the GI50 (LOX IMVI melanoma) was 1.19 µM. The TGI (LOX IMVI melanoma) was 3.34 µM, the GI50 (SN12C renal) was 2.93 µM and the TGI (SN12C renal) was 7.17 µM. For the same compound, the GI50 (SNB-75 CNS) was 1.83 µM, the TGI (SNB-75 CNS) was 3.88 µM and the GI50 (MDA-MB-435) was 4.04 µM. For the same compound, the TGI (MDA-MB-435) was 12.5 µM, the GI50 (NCI-H23 lung) was 2.37 µM and the TGI (NCI-H23 lung) was 4.82 µM. It also gave a GI50 (OVCAR-3 ovarian) of 2.18 µM, a TGI (OVCAR-3 ovarian) of 4.91 µM and a GI50 (HOP-92 NSCLC) of 1.13 µM. The TGI (HOP-92 NSCLC) was 3.92 µM, the GI50 (T-47D breast) was 3.1 µM and the TGI (T-47D breast) was 10.4 µM. For the same compound, the GI50 (SF-295 CNS) was 2.16 µM, the TGI (SF-295 CNS) was 4.73 µM and the GI50 (OVCAR-4 ovarian) was 2.35 µM. The TGI (OVCAR-4 ovarian) was 9.07 µM, the GI50 (IGROV1 ovarian) was 2.62 µM and the TGI (IGROV1 ovarian) was 7.29 µM. The GI50 (HOP-62 NSCLC) was 2.58 µM, the TGI (HOP-62 NSCLC) was 6.18 µM and the GI50 (MDA-MB-231 breast) was 2.91 µM. For the same compound, the TGI (MDA-MB-231 breast) was 6.66 µM, the GI50 (K-562 leukemia) was 0.549 µM and the TGI (K-562 leukemia) was 16.7 µM. For the same compound, the GI50 (MOLT-4 leukemia) was 0.578 µM and the TGI (MOLT-4 leukemia) was 1.51 µM.
